Source: BigSolDB 2.1

Brc1sc(Br)c(Br)c1Br
solubility (mole fraction)
Conditions	in THF	in ethanol
278.15 K	0.0397	0.00126
282.15 K	0.043	0.00134
286.15 K	0.0463	0.00151
290.15 K	0.05	0.00181
294.15 K	0.0539	0.00206
298.15 K	0.0581	0.00241
302.15 K	0.0627	0.00268
306.15 K	0.0671	0.00305
310.15 K	0.0719	0.00353
314.15 K	0.0766	0.00389
318.15 K	0.082	0.00442
322.15 K	0.0869	0.00501
